Toxic doses and inconclusive results are not listed.
System: B6C3F1 mice, Lewis lung carcinoma iv, survival T/C
Assay: NCI In Vivo Anticancer Drug Screen. Data for tumor model Lewis Lung Carcinoma (intravenous) in B6C3F1 mice
Details: endpoint: median survival time, schedule: Q01DX009 (ip), higher = longer survival
Method in brief: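 Mice carrying transplanted tumors received test compound; survival in the treated group was divided by that of the vehicle-treated control group to give the T/C value.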

[1] = dose: 12.5 mg/kg/injection, vehicle: saline
[2] = dose: 25.0 mg/kg/injection, vehicle: saline
[3] = dose: 50.0 mg/kg/injection, vehicle: saline
[4] = dose: 100.0 mg/kg/injection, vehicle: saline
[5] = dose: 3.12 mg/kg/injection, vehicle: saline with Tween-80
[6] = dose: 6.25 mg/kg/injection, vehicle: saline with Tween-80
[7] = dose: 12.5 mg/kg/injection, vehicle: saline with Tween-80
[8] = dose: 25.0 mg/kg/injection, vehicle: saline with Tween-80
[9] = dose: 1.56 mg/kg/injection, vehicle: saline with Tween-80
[10] = dose: 25.0 mg/kg/injection, vehicle: Klucel (hydroxypropylcellulose) (HPC)
[11] = dose: 50.0 mg/kg/injection, vehicle: Klucel (hydroxypropylcellulose) (HPC)
[12] = dose: 100.0 mg/kg/injection, vehicle: Klucel (hydroxypropylcellulose) (HPC)
[13] = dose: 200.0 mg/kg/injection, vehicle: Klucel (hydroxypropylcellulose) (HPC)
[14] = dose: 12.5 mg/kg/injection, vehicle: Klucel (hydroxypropylcellulose) (HPC)
[15] = dose: 50.0 mg/kg/injection, vehicle: saline with Tween-80

Compound: O=C(O)C1CSCN1 (stereo not drawn)
- T/C (dose: 3.12 mg/kg/injection, vehicle: saline): 99 % of control
- T/C (dose: 6.25 mg/kg/injection, vehicle: saline): 108 % of control
- T/C [1]: 100 % of control
- T/C [2]: 101 % of control
- T/C [3]: 101 % of control
- T/C [4]: 106 % of control

Compound: C=CC(C)(C)n1cc(C2=C(O)C(=O)C(c3cn(C(C)(C)C=C)c4ccccc34)=C(O)C2=O)c2ccccc21
- T/C (dose: 1.25 mg/kg/injection, vehicle: Klucel (hydroxypropylcellulose) (HPC)): 105 % of control
- T/C (dose: 2.5 mg/kg/injection, vehicle: Klucel (hydroxypropylcellulose) (HPC)): 110 % of control
- T/C (dose: 5.0 mg/kg/injection, vehicle: Klucel (hydroxypropylcellulose) (HPC)): 106 % of control
- T/C (dose: 10.0 mg/kg/injection, vehicle: Klucel (hydroxypropylcellulose) (HPC)): 100 % of control
- T/C (dose: 20.0 mg/kg/injection, vehicle: Klucel (hydroxypropylcellulose) (HPC)): 114 % of control
- T/C (dose: 40.0 mg/kg/injection, vehicle: Klucel (hydroxypropylcellulose) (HPC)): 119 % of control

Compound: Nc1cc2c3c(cccc3c1)C(=O)N(CCN1CCCC1)C2=O
- T/C [5]: 105 % of control
- T/C [6]: 105 % of control
- T/C [7]: 105 % of control
- T/C [8]: 109 % of control

Compound: CC(=O)Nc1ccc(Nc2ccc(C(=C3C=CC(=[N+](C)CCC#N)C=C3)c3ccc(N(C)CCC#N)cc3)cc2)cc1
- T/C (dose: 0.39 mg/kg/injection, vehicle: saline with Tween-80): 102 % of control
- T/C (dose: 0.78 mg/kg/injection, vehicle: saline with Tween-80): 102 % of control
- T/C [9]: 98 % of control
- T/C [5]: 104 % of control
- T/C [6]: 97 % of control
- T/C [7]: 105 % of control

Compound: COc1cc2c(c(OC)c1OC)-c1ccc(OC)c(=O)cc1[C@@H](NC(=O)CCl)CC2
- T/C (dose: 0.03 mg/kg/injection, vehicle: saline with Tween-80): 114 % of control
- T/C (dose: 0.06 mg/kg/injection, vehicle: saline with Tween-80): 102 % of control
- T/C (dose: 0.12 mg/kg/injection, vehicle: saline with Tween-80): 114 % of control
- T/C (dose: 0.25 mg/kg/injection, vehicle: saline with Tween-80): 106 % of control

Compound: CC[C@@]1(O)C(=O)OCc2c1cc1n(c2=O)Cc2cc3ccccc3nc2-1
- T/C (dose: 0.37 mg/kg/injection, vehicle: saline with Tween-80): 102 % of control
- T/C (dose: 0.75 mg/kg/injection, vehicle: saline with Tween-80): 105 % of control
- T/C (dose: 1.5 mg/kg/injection, vehicle: saline with Tween-80): 122 % of control

Compound: COc1cc2c(ccc3c4cc(OC)c(OC)cc4c[n+](C)c23)cc1O
- T/C [2]: 111 % of control
- T/C [3]: 113 % of control

Compound: N/C(=N\OC(=O)Nc1ccc(CSc2ccc(Cl)cc2)o1)c1ccccn1
- T/C [10]: 102 % of control
- T/C [11]: 103 % of control
- T/C [12]: 99 % of control
- T/C [13]: 99 % of control

Compound: N=c1ccn2c(n1)OC1C(O)C(CO)OC12 (stereo not drawn)
- T/C [2]: 101 % of control
- T/C [3]: 102 % of control
- T/C [4]: 107 % of control

Compound: O=C(O)CSc1c(Cl)c(=O)oc2ccc(Cl)cc12
- T/C (dose: 6.25 mg/kg/injection, vehicle: Klucel (hydroxypropylcellulose) (HPC)): 93 % of control
- T/C [14]: 93 % of control
- T/C [10]: 94 % of control
- T/C [11]: 98 % of control
- T/C [12]: 98 % of control

Compound: CCc1nc(N)nc(N)c1-c1ccc(Cl)c([N+](=O)[O-])c1
- T/C [9]: 104 % of control
- T/C [5]: 105 % of control
- T/C [6]: 104 % of control
- T/C [7]: 105 % of control

Compound: O=[N+]([O-])c1nccn1CC(O)CO (stereo not drawn)
- T/C [1]: 100 % of control
- T/C [2]: 105 % of control
- T/C [3]: 104 % of control
- T/C [4]: 102 % of control
- T/C (dose: 200.0 mg/kg/injection, vehicle: saline): 106 % of control
- T/C (dose: 400.0 mg/kg/injection, vehicle: saline): 107 % of control

Compound: OCC1OC(n2cnc3c(NO)ncnc32)C(O)C1O (stereo not drawn)
- T/C [14]: 102 % of control
- T/C [10]: 97 % of control
- T/C [11]: 109 % of control
- T/C [12]: 105 % of control
- T/C [13]: 110 % of control
- T/C (dose: 400.0 mg/kg/injection, vehicle: Klucel (hydroxypropylcellulose) (HPC)): 109 % of control

Compound: O=NN(CCCl)C(=O)NCCCl
- T/C (dose: 1.5 mg/kg/injection, vehicle: Klucel (hydroxypropylcellulose) (HPC)): 105 % of control
- T/C (dose: 1.5 mg/kg/injection, vehicle: saline + alcohol): 107 % of control
- T/C (dose: 3.0 mg/kg/injection, vehicle: Klucel (hydroxypropylcellulose) (HPC)): 120 % of control
- T/C (dose: 3.0 mg/kg/injection, vehicle: saline + alcohol): 121 % of control
- T/C (dose: 5.0 mg/kg/injection, vehicle: saline with Tween-80): 303 % of control
- T/C (dose: 6.0 mg/kg/injection, vehicle: saline + alcohol): 152 % of control
- T/C (dose: 10.0 mg/kg/injection, vehicle: saline with Tween-80): 181 % of control
- T/C (dose: 12.0 mg/kg/injection, vehicle: Klucel (hydroxypropylcellulose) (HPC)): 114 % of control
- T/C (dose: 12.0 mg/kg/injection, vehicle: saline + alcohol): 180 % of control

Compound: NS(=O)(=O)OCCCCCCCOS(N)(=O)=O
- T/C [7]: 91 % of control
- T/C [8]: 98 % of control
- T/C [15]: 88 % of control

Compound: COc1ccc(S(=O)(=O)N=N/C=C2\C=CC=CN2O)cc1OC
- T/C [5]: 92 % of control
- T/C [6]: 100 % of control
- T/C [7]: 98 % of control
- T/C [8]: 93 % of control
- T/C [15]: 106 % of control

Compound: Cc1cc(NCCCCCCNc2cc(C)nc3cc(N(C)C)ccc23)c2ccc(N(C)C)cc2n1
- T/C (dose: 3.12 mg/kg/injection, vehicle: distilled water + Tween-80 + alcohol): 98 % of control
- T/C (dose: 6.25 mg/kg/injection, vehicle: distilled water + Tween-80 + alcohol): 100 % of control
- T/C (dose: 12.5 mg/kg/injection, vehicle: distilled water + Tween-80 + alcohol): 93 % of control
- T/C (dose: 25.0 mg/kg/injection, vehicle: distilled water + Tween-80 + alcohol): 102 % of control

Compound: NC(=S)c1ncn(C2OC(CO)C(O)C2O)c1N (stereo not drawn)
- T/C (dose: 12.5 mg/kg/injection, vehicle: suspension in saline): 100 % of control
- T/C (dose: 25.0 mg/kg/injection, vehicle: suspension in saline): 99 % of control
- T/C (dose: 50.0 mg/kg/injection, vehicle: suspension in saline): 106 % of control
- T/C (dose: 100.0 mg/kg/injection, vehicle: suspension in saline): 110 % of control
- T/C (dose: 200.0 mg/kg/injection, vehicle: suspension in saline): 116 % of control

Compound: Cc1ccc(N)c(N)c1
- T/C [8]: 96 % of control
- T/C [15]: 98 % of control
- T/C (dose: 100.0 mg/kg/injection, vehicle: saline with Tween-80): 108 % of control
- T/C (dose: 200.0 mg/kg/injection, vehicle: saline with Tween-80): 103 % of control

Compound: O=c1[nH]cccc1O
- T/C (dose: 16.0 mg/kg/injection, vehicle: saline with Tween-80): 98 % of control
- T/C (dose: 32.0 mg/kg/injection, vehicle: saline with Tween-80): 94 % of control
- T/C (dose: 64.0 mg/kg/injection, vehicle: saline with Tween-80): 103 % of control
- T/C (dose: 256.0 mg/kg/injection, vehicle: saline with Tween-80): 101 % of control

— PubChem BioAssay AID276 (DTP/NCI, 2004)
